The results in this text go back to ChEMBL document CHEMBL5356947, “Mitochondria-targeted biotin-conjugated BODIPYs for cancer imaging and therapy” (RSC Med Chem, 2023).

Data set [1] can be described thus: Fluorescence property of the compound assessed as fluorescence quantum yield in EtOH. The class given is physicochemical.
The subject of another data set is MDA-MB-231. The data set can be described thus: Photocytotoxicity against human MDA-MB-231 cells assessed as inhibition of cell growth incubated for 24 hrs by MTT assay. In kind it is functional, cell-based. The conditions noted are these: MDA-MB-231, 24 h. (In general: Tetrazolium dyes change colour on reduction, which living cells bring about.)

For the molecule `CC/N=c1/cc2oc3cc(NCC)c(C)cc3c(-c3ccccc3C(=O)OCC)c-2cc1C.Cl`, the Activity in data set [1] was found to be 0.95.
What is called IC50 is the point on the concentration scale where inhibition reaches its midpoint. As to `C#CCOc1ccc(C2=C3C(C)=C(I)C(C)=[N+]3[B-](F)(F)n3c(C)c(I)c(C)c32)cc1`, the IC50 in the data set with MDA-MB-231 was found to be 25.2 nM.
